Measured values reported in article PMC9511049, “Further investigation of blockade effects and binding affinities of selected natural compounds to immune checkpoint PD-1/PD-L1” (Frontiers in Oncology, 2022).
Values joined by “and” are separate entries in the source; they are usually repeats but may differ in a detail not shown here. Equal entries are not always repeated.

What was measured:
[1] = target: T1, PD-1/PD-L1 interaction (Homo sapiens, UniProt Q9NZQ7); assay: PD-1/PD-L1 blockade assay (pair ELISA); assay type: biochemical; conditions: for blockade effect on the PD-1/PD-L1 interaction (in words): test samples at 10 and 100 μM
T1 construct: purchased ACRO Biosystems

[2] = target: T2, human PD-L1 protein (Homo sapiens, UniProt Q9NZQ7); assay: PD-L1 binding assay with SPR (Biacore T200); conditions: for kon: association rate, read-out: PD-L1 Ka; for Kd: immobilized human PD-L1 (Fc Tag)
T2 construct: Fc; purchased ACRO Biosystems

[3] = target: T3, human PD-1 protein (Homo sapiens, UniProt Q15116); assay: PD-1 binding assay with SPR (Biacore T200); conditions: for kon: association rate, read-out: PD-1 Ka; for Kd: immobilized human PD-1 (Fc Tag)
T3 construct: Fc; purchased ACRO Biosystems
Description: The PD-1/PD-L1 binding affinity of test natural compounds was measured on a SPR Biacore T200 instrument (GE Healthcare; Marlborough, MA, USA). Human PD-L1and PD-1 proteins (both with a Fc Tag) were purchased from ACRO Biosystems (Newark, DE, USA). Carboxymethylated CM 5 SPR chips were purchased from GE Healthcare (Marlborough, MA, USA). The SPR binding channels were set as: Cell-1, blank immobilization; Cell-2, human PD-L1 protein was immobilized by the injection of protein solution (40 μg/mL) in sodium acetate buffer (10 mM; pH 4.5); Cell-3, human PD-1 protein was immobilized by the injection of protein solution (40 μg/mL) in sodium acetate buffer (10 mM; pH 5.0). Approximately, 5500 and 4500 RU of human PD-1 and PD-L1 proteins, respectively, were immobilized on the flow cells with an amine coupling method.

[4] = system: PD-1/PD-L1; set-up: method as in PMID 30068796; conditions: homogenous AlphaLISA assay; read-out: IC50 of PD-1/PD-L1 blockade; cited from earlier work

T2 sequence (Q9NZQ7 19-290): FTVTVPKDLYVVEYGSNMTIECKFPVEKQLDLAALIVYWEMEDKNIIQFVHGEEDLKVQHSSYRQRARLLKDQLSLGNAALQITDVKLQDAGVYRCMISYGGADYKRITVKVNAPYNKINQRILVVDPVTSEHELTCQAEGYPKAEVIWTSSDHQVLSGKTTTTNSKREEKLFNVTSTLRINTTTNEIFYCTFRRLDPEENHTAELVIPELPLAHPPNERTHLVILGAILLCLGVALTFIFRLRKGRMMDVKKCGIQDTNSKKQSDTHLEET
T3 sequence (Q15116 25-288): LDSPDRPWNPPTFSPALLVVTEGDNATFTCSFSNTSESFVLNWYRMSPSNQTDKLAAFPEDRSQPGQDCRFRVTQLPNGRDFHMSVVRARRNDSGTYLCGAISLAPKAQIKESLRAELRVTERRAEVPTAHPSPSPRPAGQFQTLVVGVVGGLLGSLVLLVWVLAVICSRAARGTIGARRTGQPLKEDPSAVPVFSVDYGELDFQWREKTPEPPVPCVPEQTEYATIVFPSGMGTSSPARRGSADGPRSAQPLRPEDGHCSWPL
T1 sequence (Q9NZQ7 19-238 limits assumed): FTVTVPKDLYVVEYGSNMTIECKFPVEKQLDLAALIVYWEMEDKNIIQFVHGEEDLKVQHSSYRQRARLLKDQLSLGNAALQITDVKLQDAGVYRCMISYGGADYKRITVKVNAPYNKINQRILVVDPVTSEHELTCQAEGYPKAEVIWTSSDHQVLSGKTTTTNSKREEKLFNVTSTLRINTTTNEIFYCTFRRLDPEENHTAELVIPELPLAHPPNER

SMILES | blockade of the PD-1/PD-L1 interaction ([1]; compound at 100 μM) [%] | kon [2] [M⁻¹ s⁻¹] | Kd [2] | kon [3] [M⁻¹ s⁻¹] | Kd [3] | blockade of the PD-1/PD-L1 interaction ([1]; compound at 10 μM) [%] | also measured
O=C1O[C@H]2[C@@H]3OC(=O)c4cc(O)c(O)c(O)c4-c4c(O)c(O)c5oc(=O)c6c(c(O)c(O)c7oc(=O)c4c5c76)-c4c(cc(O)c(O)c4O)C(=O)OC[C@H]3OC(O)[C@@H]2OC(=O)c2cc(O)c(O)c(O)c2-c2c1cc(O)c(O)c2O (mixture of isomers) [punicalagin] |  |  |  |  |  |  | activity in the PD-1/PD-L1 blockade assay (in words) ([1]; earlier observation of the authors, concentration not given): not active; binding capacity to PD-1/PD-L1 proteins (in words) ([2]; protein not specified further (PD-1/PD-L1 proteins), earlier observation of the authors): detectable binding capacity
O=c1oc2cc(O)ccc2c2ccc(O)cc12 [urolithin A] | 39.7 |  |  |  |  |  | binding affinity to PD-L1 protein (in words) [2]: not detectable; binding affinity to PD-1 protein (in words) [3]: not detectable
O=c1cc(-c2ccc(O)cc2)oc2cc(O[C@@H]3O[C@H](CO)[C@@H](O)[C@H](O)[C@H]3O)cc(O)c12 [cosmosiin] | 55.8 | 785 | 3.32 µM |  |  |  | selectivity of binding (PD-L1 versus PD-1) [2]: selective binding to the PD-L1 protein; koff (dissociation rate constant) to PD-L1 [2]: 0.00261 s⁻¹
O=C(OC[C@H]1O[C@@H](OC(=O)c2cc(O)c(O)c(O)c2)[C@H](OC(=O)c2cc(O)c(O)c(O)c2)[C@@H](OC(=O)c2cc(O)c(O)c(O)c2)[C@@H]1OC(=O)c1cc(O)c(O)c(O)c1)c1cc(O)c(O)c(O)c1 [PGG, pentagalloyl glucose] |  | 413 | 2.23 µM | 3940 | 27.2 µM |  | blockade effect on the PD-1/PD-L1 interaction (in words) [1]: not detected
O=c1oc2c(O)c(O)cc3c(=O)oc4c(O)c(O)cc1c4c23 [EA, ellagic acid] |  |  | 26.2 µM | 410 | 1.82 µM |  | blockade effect on the PD-1/PD-L1 interaction (in words) [1]: not detected
O=c1c(O)c(-c2ccc(O)cc2)oc2cc(O)cc(O)c12 [kaempferol] | 63.4 | 5460 | 33 µM and 32.9 µM | 504 | 0.304 µM and 0.303 µM | 4.1 | binding affinity to PD-1 protein relative to PD-L1 protein ([3]; PD-1 stronger than PD-L1): 100 fold
O=C(OC[C@H]1O[C@@H](OC(=O)c2cc(O)c(O)c(OC(=O)c3cc(O)c(O)c(O)c3)c2)[C@H](OC(=O)c2cc(O)c(O)c(OC(=O)c3cc(O)c(O)c(O)c3)c2)[C@@H](OC(=O)c2cc(O)c(O)c(OC(=O)c3cc(O)c(O)c(O)c3)c2)[C@@H]1OC(=O)c1cc(O)c(O)c(OC(=O)c2cc(O)c(O)c(O)c2)c1)c1cc(O)c(O)c(OC(=O)c2cc(O)c(O)c(O)c2)c1 [TA, tannic acid] | 36.9 |  | 1.21 µM |  | 1.46 µM | 11.0 | 
Oc1ccc(/C=C/c2cc(O)cc(O)c2)cc1 [resveratrol] |  |  | 37.9 µM |  |  |  | koff (dissociation rate constant) to PD-L1 [2]: 0.06435 s⁻¹
Cc1c(COc2cc(OCc3cccc(C#N)c3)c(CN3C[C@H](O)C[C@@H]3C(=O)O)cc2Cl)cccc1-c1ccc2c(c1)OCCO2 [BMS1166, reference compound] |  |  |  |  |  | 99.3 | 
CO[C@H]1/C=C/O[C@@]2(C)Oc3c(C)c(O)c4c(c3C2=O)C2=NC3(CCN(CC(C)C)CC3)NC2=C(NC(=O)/C(C)=C\C=C\[C@H](C)[C@H](O)[C@@H](C)[C@@H](O)[C@@H](C)[C@H](OC(C)=O)[C@@H]1C)C4=O [Rifabutin, rifabutin, reference compound] | 58.6 |  |  |  |  |  | binding affinity to PD-L1 protein (in words) [2]: not detectable; binding affinity to PD-1 protein (in words) [3]: not detectable; IC50 [4]: 25 µM
